Measurements: ChEMBL document CHEMBL3639191, “Benzimidazole derivatives: preparation and pharmaceutical applications” (2013)
pIC50: −log10 of the molar value.

Assays:
[1] = target: T1, Histone deacetylase 8 (Homo sapiens, UniProt Q9BY41); assay: (§1) Enzyme Assay: The assay have been carried out in a 96 well format and the BIOMOL using a fluorescent-based HDAC activity assay.
T1 sequence (Q9BY41 whole entry): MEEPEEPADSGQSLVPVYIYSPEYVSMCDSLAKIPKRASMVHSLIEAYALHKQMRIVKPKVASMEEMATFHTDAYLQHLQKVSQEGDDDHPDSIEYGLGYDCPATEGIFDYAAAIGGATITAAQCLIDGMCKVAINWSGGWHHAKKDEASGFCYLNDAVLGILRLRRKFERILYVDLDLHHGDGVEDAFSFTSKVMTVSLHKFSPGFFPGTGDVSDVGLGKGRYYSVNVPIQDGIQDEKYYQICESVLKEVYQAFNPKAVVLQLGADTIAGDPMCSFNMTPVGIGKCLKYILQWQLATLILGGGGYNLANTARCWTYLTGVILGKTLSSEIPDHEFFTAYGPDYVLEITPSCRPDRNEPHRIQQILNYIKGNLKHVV

[2] = target: Histone deacetylase 1 (Homo sapiens, UniProt Q13547); assay: as §1
Chain of Histone deacetylase 1 (Q13547 whole entry): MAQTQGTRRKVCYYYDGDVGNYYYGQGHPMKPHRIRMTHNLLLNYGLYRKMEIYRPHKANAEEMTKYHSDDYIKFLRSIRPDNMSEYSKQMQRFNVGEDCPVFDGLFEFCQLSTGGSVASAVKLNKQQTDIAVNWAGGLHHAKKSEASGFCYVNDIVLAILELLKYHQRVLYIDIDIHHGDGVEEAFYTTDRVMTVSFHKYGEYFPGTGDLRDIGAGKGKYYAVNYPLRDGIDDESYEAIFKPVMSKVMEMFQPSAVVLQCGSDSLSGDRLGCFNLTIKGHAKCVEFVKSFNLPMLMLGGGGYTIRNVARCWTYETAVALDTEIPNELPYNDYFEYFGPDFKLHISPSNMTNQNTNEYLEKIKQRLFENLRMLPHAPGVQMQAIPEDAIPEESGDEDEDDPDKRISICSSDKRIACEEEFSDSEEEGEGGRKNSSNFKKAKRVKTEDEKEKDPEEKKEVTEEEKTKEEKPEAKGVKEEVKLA

`COc1cc(-c2nc3cc(/C=C/C(=O)NO)ccc3n2C)ccc1OCc1ccccc1` gave a pIC50 [1] of 5.77 and a pIC50 [2] of 5.86.
`COc1ccc(-c2nc3cc(/C=C/C(=O)NO)ccc3n2CC(O)CO)cc1` (stereo unspecified) was tested, and the pIC50 [1] was 6.58 and the pIC50 [2] was 5.86.
In the case of `O=C(/C=C/c1ccc2c(c1)nc(C1CCCCC1)n2CCCO)NO`, the pIC50 [1] was 6.69 and the pIC50 [2] was 5.49.
